Earlier results on one substance are cited in US20020001575A1, “Nutritional system for nervous system disorders” (priority 2000, published 2002).

For this data set the following is noted: autistic children and adults, 18 consecutive studies 1965-1996.

Turning to Vitamin B-6, the helpfulness in autism entry was “helpful in almost half of all autistic children and adults”.
